pIC50: −log10 of the molar value. The source made the active and inactive calls. The calls are words filed in the database; no cut-off is given here.
Experiments:
[1] = biological target: Serine/threonine-protein kinase mTOR (Homo sapiens, UniProt P42345); experiment: Inhibition of N-terminal FLAG-tagged recombinant human mTOR (1362 to end residue) using ULight-4EBP1 peptide as substrate incubated for 30 mins in presence of ATP by Lance ultra assay
[2] = biological target: Phosphatidylinositol 4,5-bisphosphate 3-kinase catalytic subunit beta isoform (Homo sapiens, UniProt P42338); experiment: Inhibition of PI3Kbeta (unknown origin) using PIP2 as substrate incubated for 1 hr in presence of ATP by Kinase Glo luminescence assay
HT-29 = experiment: Antiproliferative activity against human HT-29 cells with PIK3CA mutation assessed as inhibition of cell growth incubated for 48 to 72 hrs by MTT assay; type: functional, cell-based
SW-620 [3] = experiment: Antiproliferative activity against human SW620 cells assessed as inhibition of cell growth incubated for 48 to 72 hrs by MTT assay; type: functional, cell-based
NCI-H446 = experiment: Antiproliferative activity against PTEN-null human NCI-H446 cells assessed as inhibition of cell growth incubated for 48 to 72 hrs by MTT assay; type: functional, cell-based
L02 = experiment: Cytotoxicity against human L02 cells assessed as reduction in cell viability at 0.3125 to 10 uM incubated for 48 to 72 hrs by MTT assay; type: toxicity, cell-based; conditions: l02, 10 µM, dose lower 0.3125 µM, time lower 48 hrs, dose upper 10 µM, time upper 72 hrs
HeLa [4] = experiment: Inhibition of colony formation in human HeLa cells assessed as reduction in colony forming ability incubated for 15 days by crystal violet staining based analysis; type: functional, cell-based; conditions: dose 0.15625-1.25 µM, time 15.0 day, DDE = dose-dependent effect
HeLa [5] = experiment: Inhibition of colony formation in human HeLa cells assessed as reduction in colony forming ability at 0.625 uM incubated for 15 days by crystal violet staining based analysis; type: functional; conditions: 360 h, time 15 day
HeLa [6] = experiment: Induction of apoptosis in human HeLa cells assessed as early apoptotic cells at 0.15625 uM incubated for 36 hrs by Annexin V-FITC/PI staining based flow cytometric analysis (reference value: 2.02 %); type: functional; conditions: 0.1562 µM
HeLa [7] = experiment: Induction of apoptosis in human HeLa cells assessed as late apoptotic cells at 0.15625 uM incubated for 36 hrs by Annexin V-FITC/PI staining based flow cytometric analysis (reference value: 1.4 %); type: functional; conditions: 0.1562 µM
HeLa [8] = experiment: Induction of apoptosis in human HeLa cells assessed as dead cells at 0.15625 uM incubated for 36 hrs by Annexin V-FITC/PI staining based flow cytometric analysis (reference value: 0.44 %); type: functional; conditions: 0.1562 µM
HeLa [9] = experiment: Induction of apoptosis in human HeLa cells assessed as early apoptotic cells at 0.3125 uM incubated for 36 hrs by Annexin V-FITC/PI staining based flow cytometric analysis (reference value: 2.02 %); type: functional
HeLa [10] = experiment: Induction of apoptosis in human HeLa cells assessed as late apoptotic cells at 0.3125 uM incubated for 36 hrs by Annexin V-FITC/PI staining based flow cytometric analysis (reference value: 1.4 %); type: functional
HeLa [11] = experiment: Induction of apoptosis in human HeLa cells assessed as early apoptotic cells at 0.625 uM incubated for 36 hrs by Annexin V-FITC/PI staining based flow cytometric analysis (reference value: 2.02 %); type: functional
HeLa [12] = experiment: Induction of apoptosis in human HeLa cells assessed as late apoptotic cells at 1.25 uM incubated for 36 hrs by Annexin V-FITC/PI staining based flow cytometric analysis (reference value: 1.4 %); type: functional
HeLa [13] = experiment: Inhibition of PI3K/mTOR signalling pathway in human HeLa cells assessed as inhibition of Akt phosphorylation at Ser473 residue incubated for 24 hrs by Western blot analysis; type: cell-based; conditions: dose 0.3125-2.5 µM, DDE = dose-dependent effect
HeLa [14] = experiment: Inhibition of PI3K/mTOR signalling pathway in human HeLa cells assessed as inhibition of Akt phosphorylation at Thr308 residue incubated for 24 hrs by Western blot analysis; type: cell-based; conditions: dose 0.3125-2.5 µM, DDE = dose-dependent effect
HeLa [15] = experiment: Induction of cell cycle arrest in human HeLa cells assessed as accumulation of cells at G0/G1 phase measured after 24 hrs by propidium iodide staining based flow cytometry analysis; type: functional; conditions: dose 0.15625-2.5 µM, DDE = dose-dependent effect
SW-620 [16] = experiment: Induction of cell cycle arrest in human SW620 cells assessed as accumulation of cells at G0/G1 phase measured after 24 hrs by propidium iodide staining based flow cytometry analysis; type: functional; conditions: dose 0.15625-2.5 µM, DDE = dose-dependent effect
[17] = Half life in Sprague-Dawley rat at 1 mg/kg, iv measured for 24 hrs by LC-MS/MS analysis; type: ADME, organism-based; conditions: in vivo
[18] = Half life in Sprague-Dawley rat at 10 mg/kg, po measured for 24 hrs by LC-MS/MS analysis; type: ADME, organism-based; conditions: in vivo
[19] = Cmax in Sprague-Dawley rat at 10 mg/kg, po measured for 24 hrs by LC-MS/MS analysis; type: ADME, organism-based; design: time 24 hrs, dose 10 mg/kg, route po; conditions: in vivo
[20] = Tmax in Sprague-Dawley rat at 10 mg/kg, po measured for 24 hrs by LC-MS/MS analysis; type: ADME, organism-based; conditions: in vivo
[21] = Oral bioavailability in Sprague-Dawley rat at 10 mg/kg measured for 24 hrs by LC-MS/MS analysis; type: ADME, organism-based; conditions: in vivo
SW-620 [22] = experiment: Antitumor activity against human SW620 cells xenografted in BALB/c nude mouse assessed as tumor growth inhibition at 15 mg/kg, IG administered daily for 30 days and measured every 2 days relative to control; type: functional; conditions: SW-620, po, 720 h, time 30 day, read-out: TGI
[23] = Toxicity in BALB/c nude mouse xenografted with human HeLa cells assessed as lethality at 15 to 60 mg/kg, IG administered daily for 30 days and measured every 2 days; type: organism-based; conditions: in vivo, po, 720 h, dose 15-60 mg/kg, time 30 day
Mus musculus = experiment: In vivo inhibition of PI3K/mTOR signalling pathway in BALB/c nude mouse xenografted with human HeLa cells assessed as downregulation of Akt phosphorylation at Ser473 residue in tumor at 15 to 60 mg/kg, IG administered daily for 30 days; type: functional, organism-based; conditions: dose 15-60 mg/kg, time 30.0 day
HeLa [24] = experiment: Induction of apoptosis in human HeLa cells xenografted in BALB/c nude mouse at 15 to 60 mg/kg, IG administered daily for 30 days by TUNEL assay; type: functional, organism-based; conditions: dose 15-60 mg/kg, time 30.0 day
[25] = Toxicity in BALB/c nude mouse xenografted with human HeLa cells assessed as pathological changes in heart at 60 mg/kg, IG administered daily for 30 days by hematoxylin and eosin staining based microscopic analysis; type: organism-based; conditions: in vivo, po, 720 h, time 30 day
[26] = Toxicity in BALB/c nude mouse xenografted with human HeLa cells assessed as pathological changes in liver at 60 mg/kg, IG administered daily for 30 days by hematoxylin and eosin staining based microscopic analysis; type: organism-based; conditions: in vivo, po, 720 h, time 30 day
[27] = Toxicity in BALB/c nude mouse xenografted with human HeLa cells assessed as pathological changes in kidney at 60 mg/kg, IG administered daily for 30 days by hematoxylin and eosin staining based microscopic analysis; type: organism-based; conditions: in vivo, po, 720 h, time 30 day
[28] = biological target: Phosphatidylinositol 4,5-bisphosphate 3-kinase catalytic subunit gamma isoform (Homo sapiens, UniProt P48736); experiment: Inhibition of PI3Kgamma (unknown origin) using L-alpha-phosphatidylinositol as substrate incubated for 120 mins in presence of ATP by Kinase Glo luminescence assay
Phosphatidylinositol 4,5-bisphosphate 3-kinase catalytic subunit gamma isoform, sequence (P48736 whole entry, canonical isoform): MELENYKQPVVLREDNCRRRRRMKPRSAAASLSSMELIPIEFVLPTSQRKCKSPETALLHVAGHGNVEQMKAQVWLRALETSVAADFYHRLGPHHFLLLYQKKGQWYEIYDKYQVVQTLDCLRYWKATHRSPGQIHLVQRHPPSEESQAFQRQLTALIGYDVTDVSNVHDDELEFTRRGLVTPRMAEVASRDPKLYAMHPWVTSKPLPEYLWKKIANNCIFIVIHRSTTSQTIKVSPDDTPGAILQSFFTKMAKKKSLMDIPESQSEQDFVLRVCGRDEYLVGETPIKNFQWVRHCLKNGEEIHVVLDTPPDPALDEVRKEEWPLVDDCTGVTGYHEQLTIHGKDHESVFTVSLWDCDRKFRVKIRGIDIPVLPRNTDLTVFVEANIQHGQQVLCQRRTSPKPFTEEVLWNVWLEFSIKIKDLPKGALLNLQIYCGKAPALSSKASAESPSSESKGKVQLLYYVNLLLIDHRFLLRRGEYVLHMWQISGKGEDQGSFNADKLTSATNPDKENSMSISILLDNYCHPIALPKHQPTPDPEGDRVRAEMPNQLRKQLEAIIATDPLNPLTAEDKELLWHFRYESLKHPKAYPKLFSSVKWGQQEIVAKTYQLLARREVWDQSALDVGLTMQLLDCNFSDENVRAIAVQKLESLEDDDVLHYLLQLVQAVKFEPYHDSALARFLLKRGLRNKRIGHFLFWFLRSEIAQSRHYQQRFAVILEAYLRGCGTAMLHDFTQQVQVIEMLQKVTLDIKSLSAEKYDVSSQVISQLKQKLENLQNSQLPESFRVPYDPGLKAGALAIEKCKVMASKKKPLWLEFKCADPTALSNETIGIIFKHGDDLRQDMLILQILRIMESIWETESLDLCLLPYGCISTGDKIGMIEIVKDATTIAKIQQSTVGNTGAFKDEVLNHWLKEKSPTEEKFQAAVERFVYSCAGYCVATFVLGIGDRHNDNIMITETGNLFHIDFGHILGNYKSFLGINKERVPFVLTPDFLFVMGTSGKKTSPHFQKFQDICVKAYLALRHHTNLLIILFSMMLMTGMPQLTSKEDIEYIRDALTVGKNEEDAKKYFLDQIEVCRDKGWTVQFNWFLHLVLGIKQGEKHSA

Phosphatidylinositol 4,5-bisphosphate 3-kinase catalytic subunit beta isoform, sequence (P42338 whole entry, canonical isoform): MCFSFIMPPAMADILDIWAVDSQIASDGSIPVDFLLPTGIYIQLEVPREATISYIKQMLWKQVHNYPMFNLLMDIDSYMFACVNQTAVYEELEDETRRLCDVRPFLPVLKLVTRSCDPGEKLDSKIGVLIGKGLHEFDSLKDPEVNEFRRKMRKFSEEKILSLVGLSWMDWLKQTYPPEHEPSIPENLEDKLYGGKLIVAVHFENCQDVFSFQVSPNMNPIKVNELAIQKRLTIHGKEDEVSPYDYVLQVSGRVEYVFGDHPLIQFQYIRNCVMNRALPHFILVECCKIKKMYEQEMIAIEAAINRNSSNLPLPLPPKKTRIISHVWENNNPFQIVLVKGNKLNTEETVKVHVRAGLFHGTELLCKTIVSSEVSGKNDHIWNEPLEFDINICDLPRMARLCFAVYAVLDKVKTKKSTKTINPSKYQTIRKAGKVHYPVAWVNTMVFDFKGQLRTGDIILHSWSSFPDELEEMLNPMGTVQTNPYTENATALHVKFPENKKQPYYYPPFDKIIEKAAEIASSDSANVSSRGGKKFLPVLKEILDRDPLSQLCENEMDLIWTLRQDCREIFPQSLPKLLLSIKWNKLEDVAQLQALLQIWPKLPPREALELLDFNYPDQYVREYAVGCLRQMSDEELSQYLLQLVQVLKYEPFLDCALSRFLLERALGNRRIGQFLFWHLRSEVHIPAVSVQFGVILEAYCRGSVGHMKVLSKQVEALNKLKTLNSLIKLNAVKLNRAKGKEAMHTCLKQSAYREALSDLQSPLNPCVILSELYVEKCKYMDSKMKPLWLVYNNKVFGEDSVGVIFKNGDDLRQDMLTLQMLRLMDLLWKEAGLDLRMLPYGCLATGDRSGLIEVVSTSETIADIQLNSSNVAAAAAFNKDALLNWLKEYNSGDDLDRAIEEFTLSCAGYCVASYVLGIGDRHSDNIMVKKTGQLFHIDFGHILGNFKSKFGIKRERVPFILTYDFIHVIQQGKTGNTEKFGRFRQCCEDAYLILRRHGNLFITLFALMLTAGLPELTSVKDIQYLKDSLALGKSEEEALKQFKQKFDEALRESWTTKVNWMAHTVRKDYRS

Cc1nc2cnc3ccc(-c4cnc5[nH]ccc5c4)cc3c2n1-c1ccc(C(C)(C)C#N)nc1
pIC50 [1]: 7.67
pIC50 [2]: 6.97
pIC50 (HT-29): 6.60
pIC50 (SW-620 [3]): 6.80
pIC50 (NCI-H446): 6.01
Activity (L02): Non-Toxic
inhibition (HeLa [4]): Dde
inhibition at 0.625 µM (HeLa [5]): 100%
Activity (HeLa [6]): 4.18%
Activity (HeLa [7]): 1.92%
Activity (HeLa [8]): 0.4%
Activity (HeLa [9]): 6.23%
Activity (HeLa [10]): 3%
Activity (HeLa [11]): 18.32%
Activity (HeLa [12]): 23.32%
inhibition (HeLa [13]): Dde
inhibition (HeLa [14]): Dde
Activity (HeLa [15]): Dde
Activity (SW-620 [16]): Dde
half-life [17]: 69.6 min
t1/2 [18]: 2.6 h
Cmax [19]: 2995 ng/mL
Tmax [20]: 45 min
bioavailability [21]: 76.8%
inhibition in vivo at 15 mg/kg (SW-620 [22]): 60.6%
Activity [23]: Non-Toxic
inhibition (Mus musculus): Active
Activity (HeLa [24]): Active
Activity [25]: Non-Toxic
Activity [26]: Non-Toxic
Activity [27]: Non-Toxic
pIC50 [28]: 8.30
